Tested on: T cells isolated from mouse spleens
Experiment: T cell proliferation inhibition (CFSE flow cytometry, anti-CD3/anti-CD28 stimulation)
Format: cell-based
Settings: mouse spleen T cells, 3 days; for inhibition at 0.01 µM / inhibition at 0.1 µM / inhibition at 1 µM / inhibition at 10 µM / inhibition at 30 µM / inhibition at 50 µM: Mus musculus, T-cell, 72 h, read-out: Proliferation inhibition rate (%)
Protocol: To verify the T cell proliferation inhibitory effect of the compounds according to the present invention, the following experiment was performed based on flow cytometry analysis using carboxyfluorescein diacetate succinimidyl ester (CFSE), a fluorescent dye that binds to intracellular molecules via covalent bonds.
Spleens were extracted from 7-week-old C57BL/6 mice, ground, and then separated into single cells using a strainer (40 μm pore size, SPL). Red blood cells were removed using ACK (Ammonium-Chloride-Potassium) lysis buffer to isolate white blood cells.
Finally, using a MACS Magnetic Stand and LS column, T cells were isolated from the spleen.
The T cells isolated from the spleen were resuspended in 1 mL of free medium (RPMI-1640+200 U/mL penicillin+200 μg/mL streptomycin), and 0.3 μL of CFSE (10 mM) was added. The mixture was incubated at 37° C. for 5 minutes.
Free medium (10 mL) was added to stop the reaction, and the cells were centrifuged to obtain the cell pellet.
RPMI 1640 medium containing 10% FBS, 100 U/mL penicillin, 100 μg/mL streptomycin, and resuspended the cells. The cells were then seeded into a 96-well plate at a density of 2×10^5 cells per well and activated with CD3 and CD28 antibodies (0.5 μg/mL each) to activate T cells.
The compound diluted in DMSO was added at concentrations of 10 nM, 100 nM, 1 μM, 10 μM, 30 μM, and 50 μM, with three wells per concentration, and cultured at 37° C. and 5% CO2 for three days. The cells were then analyzed using a FACS Canto instrument.
The proliferation inhibition rate (%) was calculated using the following formula: […]

Compound: Nc1nc(NC(=O)CCCCCCCCCCCCN2CCC(O)CC2)nc2nc[nH]c12 [Compound 13, 12-(4-hydroxypiperidin-1-yl)dodecyl-N-(6-aminopurine-2-yl) carboxamide]
- Proliferation inhibition rate (%) (compound 10 nM, listed as GO87, 0.01 µM): 9.13%
- Proliferation inhibition rate (%) (compound 100 nM, listed as GO87, 0.1 µM): 1.71%
- Proliferation inhibition rate (%) (compound 10 μM, listed as GO87, 10 µM): 81.15%

Compound: Nc1ncccc1C(=O)NCCCCCCCCCCCCN1CCC2CCCCC2C1 (stereo not shown) [Compound 16, 2-Amino-N-(12-(octahydroisoquinolin-2 (1H)-yl)dodecyl) nicotinamide]
- Proliferation inhibition rate (%) (compound 10 nM): 4.13%
- Proliferation inhibition rate (%) (compound 100 nM): −2.93%
- Proliferation inhibition rate (%) (compound 1 μM): 100.00%
- Proliferation inhibition rate (%) (compound 10 μM): 100.00%
- Proliferation inhibition rate (%) (compound 30 μM): 100.00%
- Proliferation inhibition rate (%) (compound 50 μM): 100.00%

Compound: Nc1ncccc1C(=O)NCCCCCCCCCCCCN1CCc2ccccc2C1 [Compound 17, 2-Amino-N-(12-(3,4-dihydroisoquinolin-2 (1H)-yl)dodecyl) nicotinamide]
- Proliferation inhibition rate (%) (compound 10 nM, listed as PBK-2024-004, 0.01 µM): 0.00%
- Proliferation inhibition rate (%) (compound 100 nM, listed as PBK-2024-004, 0.1 µM): −14.00%
- Proliferation inhibition rate (%) (compound 1 μM, listed as PBK-2024-004, 1 µM): 100.00%
- Proliferation inhibition rate (%) (compound 10 μM, listed as PBK-2024-004, 10 µM): 100.00%

Compound: CN(CCCCCCCCCCCCNC(=O)c1cccnc1N)C1CCCCC1 [Compound 34, 2-Amino-N-(12-(cyclohexyl(methyl)amino)dodecyl) nicotinamide]
- Proliferation inhibition rate (%) (compound 10 nM): 2.08%
- Proliferation inhibition rate (%) (compound 100 nM): 100.00%
- Proliferation inhibition rate (%) (compound 1 μM): 100.00%
- Proliferation inhibition rate (%) (compound 10 μM): 100.00%
- Proliferation inhibition rate (%) (compound 30 μM): 100.00%
- Proliferation inhibition rate (%) (compound 50 μM): 100.00%

Compound: CC1CN(CCCCCCCCCCCCNC(=O)c2cccnc2N)C(C)CN1.Cl (stereo not shown) [Compound 36, 2-Amino-N-(12-(2,5-dimethylpiperazin-1-yl)dodecyl) nicotinamide hydrochloride]
- Proliferation inhibition rate (%) (compound 10 nM): −38.89%
- Proliferation inhibition rate (%) (compound 100 nM): 100.00%
- Proliferation inhibition rate (%) (compound 1 μM): 100.00%
- Proliferation inhibition rate (%) (compound 10 μM): 100.00%
- Proliferation inhibition rate (%) (compound 30 μM): 100.00%
- Proliferation inhibition rate (%) (compound 50 μM): 100.00%

Compound: Nc1ncccc1C(=O)NCCCCCCCCCCCCN1CCC(O)CC1 [Compound 48, 2-Amino-N-(12-(4-hydroxypiperidin-1-yl)dodecyl) nicotinamide]
- Proliferation inhibition rate (%) (compound 10 nM, listed as PBK-2025-012, 0.01 µM): −18.31%
- Proliferation inhibition rate (%) (compound 100 nM): 100.00%
- Proliferation inhibition rate (%) (compound 1 μM): 100.00%
- Proliferation inhibition rate (%) (compound 10 μM): 100.00%
- Proliferation inhibition rate (%) (compound 30 μM): 100.00%
- Proliferation inhibition rate (%) (compound 50 μM): 100.00%

Compound: CN(CCCCCCCCCCCCNC(=O)c1cccnc1N)C(C)(C)C [Compound 53, 2-Amino-N-(12-(tert-butyl(methyl)amino)dodecyl) nicotinamide]
- Proliferation inhibition rate (%) (compound 10 nM): −26.59%
- Proliferation inhibition rate (%) (compound 100 nM): 100.00%
- Proliferation inhibition rate (%) (compound 1 μM): 100.00%
- Proliferation inhibition rate (%) (compound 10 μM): 100.00%
- Proliferation inhibition rate (%) (compound 30 μM): 100.00%
- Proliferation inhibition rate (%) (compound 50 μM): 100.00%

Compound: O=C(NCCCCCCCCCCCCF)c1cccnc1Br [Compound 58, 2-Bromo-N-(12-fluoro-dodecyl)-nicotinamide]
- inhibition at 0.01 µM (compound 10 nM): -4.38%
- inhibition at 0.1 µM (compound 100 nM): 1.78%
- inhibition at 1 µM (compound 1 μM): 1.92%
- inhibition at 10 µM (compound 10 μM): 20%
- inhibition at 30 µM (compound 30 μM): 78.9%
- inhibition at 50 µM (compound 50 μM): 95.8%

Compound: O=C(NCCCCCCCCCCCCF)c1ccncc1Nc1cccc(C(F)(F)F)c1 [Compound 59, N-(12-fluoro-dodecyl)-3-(3-trifluoromethyl-phenylamino)-isonicotinamide]
- inhibition at 0.01 µM (compound 10 nM): 0%
- inhibition at 0.1 µM (compound 100 nM): 0%
- inhibition at 1 µM (compound 1 μM): 0%
- inhibition at 10 µM (compound 10 μM): -8.32%
- inhibition at 30 µM (compound 30 μM): 78.4%
- inhibition at 50 µM (compound 50 μM): 99.8%

Compound: O=C(NCCCCCCCCCCCCF)c1cnccc1Cl [Compound 60, 4-Chloro-N-(12-fluoro-dodecyl)-nicotinamide]
- inhibition at 0.01 µM (compound 10 nM): -1.92%
- inhibition at 0.1 µM (compound 100 nM): 8.77%
- inhibition at 1 µM (compound 1 μM): 6.85%
- inhibition at 10 µM (compound 10 μM): 63.5%
- inhibition at 30 µM (compound 30 μM): 100%
- inhibition at 50 µM (compound 50 μM): 100%

Compound: CS(=O)(=O)c1ncccc1C(=O)NCCCCCCCCCCCCF [Compound 67, N-(12-fluoro-dodecyl)-2-methylsulfonyl-nicotinamide]
- inhibition at 0.01 µM (compound 10 nM): 0%
- inhibition at 0.1 µM (compound 100 nM): 0%
- inhibition at 1 µM (compound 1 μM): 0%
- inhibition at 10 µM (compound 10 μM): -3.83%
- inhibition at 30 µM (compound 30 μM): 73.8%
- inhibition at 50 µM (compound 50 μM): 100%

Compound: O=C(NCCCCCCCCCCCCF)c1ccncc1I [Compound 76, N-(12-fluoro-dodecyl)-3-iodo-isonicotinamide]
- inhibition at 0.01 µM (compound 10 nM): 0%
- inhibition at 0.1 µM (compound 100 nM): 0%
- inhibition at 1 µM (compound 1 μM): 0%
- inhibition at 10 µM (compound 10 μM): -4.95%
- inhibition at 30 µM (compound 30 μM): 23.7%
- inhibition at 50 µM (compound 50 μM): 97.8%

Compound: N#CCCCCCCCCCCNC(=O)c1ccccc1Br [Compound 77, 2-Bromo-N-(10-cyano-decyl)benzamide]
- inhibition at 0.01 µM (compound 10 nM): 1.51%
- inhibition at 0.1 µM (compound 100 nM): -3.97%
- inhibition at 1 µM (compound 1 μM): 15.3%
- inhibition at 10 µM (compound 10 μM): 2.09%
- inhibition at 30 µM (compound 30 μM): 3.8%
- inhibition at 50 µM (compound 50 μM): 32.2%

Compound: Nc1ncccc1C(=O)NCCCN1CCOCC1 [Compound 78, 2-amino-N-(3-morpholin-4-yl-propyl)nicotinamide]
- inhibition at 0.01 µM (compound 10 nM): -7.14%
- inhibition at 0.1 µM (compound 100 nM): -4.19%
- inhibition at 1 µM (compound 1 μM): -3.73%
- inhibition at 10 µM (compound 10 μM): 0.68%
- inhibition at 30 µM (compound 30 μM): 4.51%
- inhibition at 50 µM (compound 50 μM): 8.76%

Compound: N#CCCCCCCCCCCNC(=O)c1cccnc1N [Compound 79, 2-amino-N-(10-cyano-decyl)-nicotinamide]
- inhibition at 0.01 µM (compound 10 nM): -2.19%
- inhibition at 0.1 µM (compound 100 nM): 1.23%
- inhibition at 1 µM (compound 1 μM): 7.12%
- inhibition at 10 µM (compound 10 μM): 11%
- inhibition at 30 µM (compound 30 μM): 27.9%
- inhibition at 50 µM (compound 50 μM): 34.7%

Compound: CCOC(=O)C1CCCN(CCCCCCCCCCCCNC(=O)c2cccnc2N)C1 (stereo not shown) [Compound 92, ethyl 1-(12-(2-aminonicotinamido)dodecyl)piperidine-3-carboxylate]
- inhibition at 0.01 µM (compound 10 nM): -9.65%
- inhibition at 0.1 µM (compound 100 nM): 100%
- inhibition at 1 µM (compound 1 μM): 100%
- inhibition at 10 µM (compound 10 μM): 100%
- inhibition at 30 µM (compound 30 μM): 100%
- inhibition at 50 µM (compound 50 μM): 100%

Compound: COC(=O)C1CCN(CCCCCCCCCCCCNC(=O)c2cccnc2N)CC1 [Compound 93, methyl 1-(12-(2-aminonicotinamido)dodecyl)piperidine-4-carboxylate]
- inhibition at 0.01 µM (compound 10 nM): -12.9%
- inhibition at 0.1 µM (compound 100 nM): 100%
- inhibition at 1 µM (compound 1 μM): 100%
- inhibition at 10 µM (compound 10 μM): 100%
- inhibition at 30 µM (compound 30 μM): 100%
- inhibition at 50 µM (compound 50 μM): 100%

Compound: COC1CCN(CCCCCCCCCCCCNC(=O)c2cccnc2N)CC1 [Compound 94, 2-amino-N-(12-(4-methoxypiperidin-1-yl)dodecyl) nicotinamide]
- Proliferation inhibition rate (%) (compound 10 nM): −25.44%
- Proliferation inhibition rate (%) (compound 100 nM): 100.00%
- Proliferation inhibition rate (%) (compound 1 μM): 100.00%
- Proliferation inhibition rate (%) (compound 10 μM): 100.00%
- Proliferation inhibition rate (%) (compound 30 μM): 100.00%
- Proliferation inhibition rate (%) (compound 50 μM): 100.00%

Compound: COCCN1CCN(CCCCCCCCCCCCNC(=O)c2cccnc2N)CC1 [Compound 95, 2-amino-N-(12-(4-(2-methoxyethyl)piperazin-1-yl)dodecyl)nicotinamide]
- inhibition at 0.01 µM (compound 10 nM): 94.4%
- inhibition at 0.1 µM (compound 100 nM): 100%
- inhibition at 1 µM (compound 1 μM): 100%
- inhibition at 10 µM (compound 10 μM): 100%
- inhibition at 30 µM (compound 30 μM): 100%
- inhibition at 50 µM (compound 50 μM): 100%

Compound: C=CCN(C)CCCCCCCCCCCCNC(=O)c1cccnc1N [Compound 96, N-(12-(allyl(methyl)amino)dodecyl)-2-aminonicotinamide]
- inhibition at 0.01 µM (compound 10 nM): -0.58%
- inhibition at 0.1 µM (compound 100 nM): 100%
- inhibition at 1 µM (compound 1 μM): 100%
- inhibition at 10 µM (compound 10 μM): 100%
- inhibition at 30 µM (compound 30 μM): 100%
- inhibition at 50 µM (compound 50 μM): 100%

Reference: patent US20260183274A1, “PDK1 REGULATORY COMPOUND AND COMPOSITION CONTAINING THE SAME” (PROVIBIO CO., LTD., priority 2024, published 2026)
